The values below come from PMC8291035 (Biochemical pharmacology, 2021).

This experiment deals with ABCB1 (P-glycoprotein, P-gp, MDR1) (Homo sapiens, UniProt P08183). Briefly: cell-based.

Structures are written as SMILES. pIC50: −log10 of the molar value.

Chain of ABCB1 (P-glycoprotein, P-gp, MDR1) (P08183 whole entry): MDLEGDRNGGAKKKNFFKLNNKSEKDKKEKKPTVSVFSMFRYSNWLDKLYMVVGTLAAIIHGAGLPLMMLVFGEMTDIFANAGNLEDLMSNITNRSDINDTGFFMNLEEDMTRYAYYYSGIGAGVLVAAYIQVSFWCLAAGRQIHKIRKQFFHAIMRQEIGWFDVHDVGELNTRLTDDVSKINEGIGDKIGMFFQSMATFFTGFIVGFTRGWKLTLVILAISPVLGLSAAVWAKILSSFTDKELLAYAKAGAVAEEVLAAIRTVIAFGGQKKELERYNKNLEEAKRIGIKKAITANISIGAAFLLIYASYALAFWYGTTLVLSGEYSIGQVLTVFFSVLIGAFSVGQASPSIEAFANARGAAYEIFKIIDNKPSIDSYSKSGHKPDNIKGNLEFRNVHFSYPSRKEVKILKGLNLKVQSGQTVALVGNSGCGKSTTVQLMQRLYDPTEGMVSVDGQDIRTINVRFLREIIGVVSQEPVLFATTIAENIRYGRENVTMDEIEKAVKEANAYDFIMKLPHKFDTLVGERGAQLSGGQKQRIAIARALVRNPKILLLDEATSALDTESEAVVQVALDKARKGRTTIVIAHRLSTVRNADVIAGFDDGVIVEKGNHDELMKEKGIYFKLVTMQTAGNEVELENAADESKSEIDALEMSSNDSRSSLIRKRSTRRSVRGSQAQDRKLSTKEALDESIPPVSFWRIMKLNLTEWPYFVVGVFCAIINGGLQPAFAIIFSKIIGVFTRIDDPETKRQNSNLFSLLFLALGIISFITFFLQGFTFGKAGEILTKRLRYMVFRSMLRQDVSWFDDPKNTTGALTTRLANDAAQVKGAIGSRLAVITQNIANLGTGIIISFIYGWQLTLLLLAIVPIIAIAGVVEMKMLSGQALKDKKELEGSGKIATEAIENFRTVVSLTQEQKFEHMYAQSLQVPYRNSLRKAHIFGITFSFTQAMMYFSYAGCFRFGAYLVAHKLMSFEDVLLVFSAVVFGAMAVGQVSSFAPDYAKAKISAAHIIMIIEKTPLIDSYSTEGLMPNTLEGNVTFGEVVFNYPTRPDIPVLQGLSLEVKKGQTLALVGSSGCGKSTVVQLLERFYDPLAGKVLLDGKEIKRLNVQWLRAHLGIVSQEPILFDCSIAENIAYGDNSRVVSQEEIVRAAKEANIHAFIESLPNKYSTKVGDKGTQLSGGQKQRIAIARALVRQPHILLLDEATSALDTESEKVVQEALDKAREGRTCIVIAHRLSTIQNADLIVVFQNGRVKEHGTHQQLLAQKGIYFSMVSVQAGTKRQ

With `C=CC(=O)Nc1cc(Nc2nccc(-c3cn(C4CC4)c4ccccc34)n2)c(OC)cc1N(C)CCN(C)C` [almonertinib], the negative-log IC50 (pIC50) (usually the IC50 on a negative log10 scale, so that one unit is a factor of ten) is around 5.70.
